{"source": "paper PMC2783557", "about": "(Brain, behavior, and immunity, 2009)", "key": {"[1]": {"tested_on": "Male CD-1 mice", "assay": "Brain uptake", "format": "in vivo, mouse", "details": "indomethacin 20 mg/kg ip 30 min before LPS 3 mg/kg; n = 6-8/group"}, "[2]": {"tested_on": "Tg2576 mice", "details": "chronic treatment from 8-15 months of age, ref Sheng et al., 2003; cited from earlier work"}}}
{"smiles": "COc1ccc2c(c1)c(CC(=O)O)c(C)n2C(=O)c1ccc(Cl)cc1", "note": "[Indomethacin]", "values": [{"measurement": "effect of LPS on brain uptake (influx) of I-Aβ", "setting": "[1]", "value": "did not reverse"}, {"measurement": "levels of soluble Aβ40 and Aβ42 in the hippocampus and cortex", "setting": "[2]", "value": "significantly reduce"}]}
